The record followed here is ChEMBL document CHEMBL1155386, “Synthesis and evaluation of 2-pyridylbenzothiazole, 2-pyridylbenzoxazole and 2-pyridylbenzofuran derivatives as 11C-PET imaging agents for beta-amyloid plaques” (Bioorg Med Chem Lett, 2010).

SMILES strings stand for the structures. Activity calls are given as the source filed them. No cut-off for these calls is given here.

Data set [1] deals with T1, Amyloid-beta precursor protein (Homo sapiens, UniProt P05067). Briefly: Binding affinity to Abeta (1 to 40) in brain cortex of patient with Alzheimer's disease by autoradiography relative to non-specific unlabelled PIB binding. It is filed as tissue-based. The following applies: tested as the 3H-labelled form.
T1 sequence (P05067 whole entry): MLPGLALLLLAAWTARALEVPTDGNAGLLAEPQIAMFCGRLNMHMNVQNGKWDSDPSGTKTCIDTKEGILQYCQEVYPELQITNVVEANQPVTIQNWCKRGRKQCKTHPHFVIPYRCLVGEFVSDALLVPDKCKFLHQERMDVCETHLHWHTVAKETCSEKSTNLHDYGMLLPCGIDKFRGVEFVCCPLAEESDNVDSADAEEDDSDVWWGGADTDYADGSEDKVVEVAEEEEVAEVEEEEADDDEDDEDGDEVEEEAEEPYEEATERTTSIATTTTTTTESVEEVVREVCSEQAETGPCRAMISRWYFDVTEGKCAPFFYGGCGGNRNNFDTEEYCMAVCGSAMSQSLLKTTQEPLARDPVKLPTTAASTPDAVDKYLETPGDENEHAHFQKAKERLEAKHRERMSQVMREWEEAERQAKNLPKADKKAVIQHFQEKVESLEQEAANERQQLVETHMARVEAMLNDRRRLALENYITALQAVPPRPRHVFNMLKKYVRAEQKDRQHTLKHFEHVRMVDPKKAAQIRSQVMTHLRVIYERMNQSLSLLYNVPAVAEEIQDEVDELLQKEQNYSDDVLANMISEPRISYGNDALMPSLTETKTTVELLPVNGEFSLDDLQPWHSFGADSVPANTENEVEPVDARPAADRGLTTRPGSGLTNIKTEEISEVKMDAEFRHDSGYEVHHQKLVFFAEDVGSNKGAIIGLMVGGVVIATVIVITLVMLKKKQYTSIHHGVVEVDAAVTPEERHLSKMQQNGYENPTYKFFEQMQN
The subject of the next data set is Mus musculus. As to the kind of experiment: Ex vivo binding affinity to amyloid beta (1 to 40) of APP/PS1 transgenic mouse brain at 10.3 nmol/kg, iv after 10 mins by autoradiography. It is filed as functional, organism-based. The following applies: tested as the 3H-labelled form.
The nature of data set [2]: Lipophilicity, log D of the compound. It counts as physicochemical. The following applies: octanol/water.
In data set [3] the target is T1, Amyloid-beta precursor protein. As to the kind of experiment: Displacement of [3H]PIB from human amyloid beta (1 to 40) after 30 mins by liquid scintillation counting. On the technique in general: In a radioligand displacement assay an active substance lowers the binding of a labelled ligand.

In the case of `CNc1ccc(-c2nc3ccc(O)cc3s2)cn1`, the result (in data set [1]; with Mus musculus) was Active.

`CNc1ccc(-c2nc3ccc(OC)cc3o2)cn1`: in data set [2], the logD (in general, the decadic logarithm of the distribution of all forms, ionised or not, between an organic phase and buffer at a given pH) is 2.7.

In data set [2], `[3H]C([3H])([3H])N(c1ccc(-c2nc3ccc(O)cc3s2)cn1)C([3H])([3H])[3H]` displayed a logD of 2.4. Besides, in data set [3], the IC50 (as a rule, the concentration that inhibits the measured activity by half) was 19 nM. Take `CNc1ccc(-c2cc3ccc(O)cc3o2)cn1`: the logD in data set [2] worked out at 2. In addition, in data set [3], the IC50 worked out at 45 nM. Regarding `CNc1ccc(-c2nc3ccc(OC)cc3s2)cn1`, in data set [1], the outcome was inactive. `COc1ccc2cc(-c3ccc(C(N)=O)nc3)oc2c1` returned a logD in data set [2] of 1.7. The compound also showed an IC50 in data set [3] of 60 nM. `[3H]N(c1ccc(-c2nc3ccc(O)cc3o2)cn1)C([3H])([3H])[3H]`: in data set [2], the logD stood at 1.3. Further, the IC50 in data set [3] was found to be 182 nM.

In turn, `CNc1ccc(-c2cc3ccc(OC)cc3o2)cn1` had a logD in data set [2] of 3.8. In addition, the IC50 in data set [3] was found to be 66 nM. `CNc1ccc(-c2nc3ccc(O)cc3s2)cc1`: the outcome in the data set with Mus musculus was Active. With `CNc1ccc(-c2nc3cc(O)ccc3s2)cn1`, the logD in data set [2] was found to be 1.5. The compound further registered an IC50 in data set [3] of 74 nM.

Regarding `COc1ccc2nc(-c3ccc(N(C)C)nc3)oc2c1`, in data set [1], the result was inactive. Take `[3H]C([3H])([3H])N(c1ccc(-c2nc3ccc(O)cc3o2)cn1)C([3H])([3H])[3H]`: in data set [2], the logD stood at 1.9. Also, in data set [3], the IC50 was 85 nM. On to `CNc1ccc(-c2nc3ccc(O)cc3o2)cn1`, for which the outcome (in data set [1]; in the data set on Mus musculus) was Active. In data set [2], `CN(C)c1ncc(-c2nc3ccc(O)cc3s2)cn1` came in with a logD of 2.2. In addition, in data set [3], the IC50 worked out at 41 nM. Turning to `CNc1ncc(-c2nc3ccc(O)cc3s2)cn1`, in data set [2], the logD is 0.9. Also, in data set [3], the IC50 was 267 nM. In data set [2], `COc1ccc2nc(-c3ccc(N(C)C)nc3)sc2c1` returned a logD of 4.2. In data set [3], this compound had an IC50 of 81 nM. The compound `CNc1ccc2nc(-c3ccc(C(N)=O)nc3)sc2c1` returned a logD in data set [2] of 1.7. The compound further gave an IC50 in data set [3] of 35 nM. Compound `CN(C)c1ccc(-c2nc3cc(O)ccc3o2)cn1` showed a logD in data set [2] of 2.2. Besides, the IC50 in data set [3] came out at 137 nM. For `[3H]N(c1ccc(-c2nc3ccc(OC)cc3s2)cn1)C([3H])([3H])[3H]`, in data set [2], the pH-dependent lipophilicity (logD) came to 3.2. Also, the IC50 in data set [3] amounted to 58 nM.

In the case of `[3H]C([3H])([3H])N(c1ccc(-c2nc3ccc(OC)cc3o2)cn1)C([3H])([3H])[3H]`, the logD in data set [2] amounted to 3.7. The IC50 in data set [3] is 204 nM. Consider `[3H]C([3H])([3H])N(c1ncc(-c2nc3ccc(O)cc3o2)cn1)C([3H])([3H])[3H]`, for which the logD in data set [2] was 1.8. This compound also gave an IC50 in data set [3] of 75 nM. The corresponding values for `[3H]N(c1ccc(-c2nc3ccc(O)cc3s2)cn1)C([3H])([3H])[3H]` are 1.8 and 58 nM.

In data set [2], `CNc1ccc(-c2nc3ccc(C(N)=O)cc3s2)cn1` displayed a logD of 0.5. Besides, the IC50 in data set [3] stood at 85 nM. In data set [2], `COc1ccc2cc(-c3ccc(C(N)=O)cn3)oc2c1` gave a logD of 2.8. In data set [3], this compound gave an IC50 of 33 nM. `CN(C)c1ccc(-c2nc3ccc(O)cc3s2)cn1`: in data set [1], the outcome was inactive.
